Measurements as given in patent publication US9561201B2, “Therapeutic compounds” (Fibrotech Therapeutics Pty Ltd, priority 2006, dated 2017).

How the values were obtained:
rat mesangial cell line [1] = experiment: TGF-β stimulated 3H-proline incorporation in mesangial cells (Example 5); type: cell-based; settings: for Collagen synthesis: inhibition ranked against tranilast (T) or FT11
Description: (§1) A well-characterized cloned rat mesangial cell line (gift of D Nikolic-Patterson) is cultured in DMEM with FBS, 100 U/mL penicillin, and 100 ug/mL streptomycin in a humidified 5% CO2 atmosphere at 37° C. Cells are plated into 24-well culture dishes in DMEM/10% FBS at low density and allowed to adhere overnight. Cells are used between passages 20 and 40. The subconfluent cells are starved overnight in DMEM/0.1% FBS containing 150 uM L-ascorbic acid, prior to 4 hours of pre-treatment with or without tranilast or the FT compounds, followed by the addition of 5 ng/mL rhTGF-β11 (R&D Systems) and 1 uCi/mL of L-(2,3,4,5-^3H)-proline. Control wells have the compounds but no TGF-β1 added. Cells are incubated for a further 44 hours during which time their appearance is visually monitored. The cells are then washed three times in ice-cold PBS, twice in ice cold 10% TCA and solubilized in 750 uL 1M NaOH for 45 minutes at 37° C. or overnight at 4° C. A 500 uL aliquot is neutralized with 500 uL 1M HCl and 10 mL scintillation fluid (Instagel Plus-Perkin-Elmer) added. Counts are performed on a beta counter.
To normalize the proline incorporation counts to take into account the proliferative effects of TGF-β1, a BioRad protein assay is performed on a 100-150 uL aliquot of the remaining solubilized cells. The sample is neutralized with an equal amount of 1M HCl prior to the assay. The BSA standards used to construct the standard curve have the same amount of 1M NaOH and 1M HCl added as is present in the samples for assay.
Proline incorporation is expressed as cpm/ug protein. In order to compare inter-assay results, the incorporation is expressed as percentage reduction of TGF stimulated proline incorporation, where TGF alone gives 0% reduction and the zero control gives 100% reduction.

rat mesangial cell line [2] = experiment: Effect on mesangial cell appearance (visual monitoring during proline assay); type: cell-based
Description: as §1
Compounds in Bold have Minimal Effect on Cell Appearance and Viability

[3] = Rattus norvegicus, Mesangial cell, @ 30 μM, 5 ng/mL TGF-β1, 44 h, read-out: Mesangial Cell Assay TGF-β % reduction of TGF-β stimulation_proline inc.
[4] = Rattus norvegicus, Mesangial cell, 5 ng/mL TGF-β1, 44 h, read-out: Mesangial Cell Assay TGF-β % reduction of TGF-β stimulation_proline inc.
[5] = Rattus norvegicus, Mesangial cell, @ 10 μM, 5 ng/mL TGF-β1, 44 h, read-out: Mesangial Cell Assay TGF-β % reduction of TGF-β stimulation_proline inc.

Row | Compound | inhibition at 30 µM (rat mesangial cell line [1]; [3]) | inhibition at 100 µM (rat mesangial cell line [1]; [4]) | Collagen synthesis (rat mesangial cell line [1]) | Effect on mesangial cell appearance (rat mesangial cell line [2]; @ 100 μM) | inhibition at 10 µM (rat mesangial cell line [1]; [5]) | other results
1 | COc1ccc(/C=C/C(=O)Nc2ccccc2C(=O)O)cc1OC [Analogue 1, (E)-2-[[3-(3,4-Dimethoxyphenyl)-1-oxo-2-propenyl]amino]benzoic acid] | 20 to 50% | 50 to 70% | =T | stress @ | – | –
2 | COc1ccc(/C=C/C(=O)Nc2ccccc2C(=O)O)cc1 [Analogue 3, (E)-2-[[3-(4-Methoxyphenyl)-1-oxo-2-propenyl]amino]benzoic acid] | – | – | <<T | – | – | –
3 | COc1ccc(/C=C/C(=O)Nc2ccccc2C(N)=O)cc1OC [Analogue 12, (E)-2-[[3-(3,4-Dimethoxyphenyl)-1-oxo-2-propenyl]amino]benzamide] | 20% | 36% | <FT11 | sparse @ | ~13% | –
4 | COc1ccc(/C=C/C(=O)Nc2ccccc2)cc1OC [Analogue 13, (E)-[3-(3,4-Dimethoxyphenyl)-1-oxo-2-propenyl]aminobenzene] | ~20% | ~55% | <FT11 | sparse @ | – | –
5 | COc1ccc(/C=C/C(=O)Nc2ccc(C(=O)O)cc2)cc1OC [Analogue 14, (E)-4-[[3-(3,4-Dimethoxyphenyl)-1-oxo-2-propenyl]amino]benzoic acid] | – | ~30% | <FT11 | – | – | –
6 | C#CCNC(=O)c1ccccc1NC(=O)/C=C/c1ccc(OC)c(OC)c1 [Analogue 15, (E)-2-[[3-(3,4-Dimethoxyphenyl)-1-oxo-2-propenyl]amino]-N-propargylbenzamide] | 36% | 75% | <FT11 | sparse @ 30 | ~24% | Effect on mesangial cell appearance (rat mesangial cell line [2]; @ 30 μM): sparse @ 30
7 | CCC#CCOc1cc(/C=C/C(=O)Nc2ccccc2C(=O)O)ccc1OC [Analogue 19] | – | – | >FT11 | – | – | Mesangial Cell Assay TGF-β % reduction of TGF-β stimulation_proline inc. (rat mesangial cell line [1]; @ 10 μM, 5 ng/mL TGF-β1, 44 h): ~80% @ 10; Mesangial Cell Assay TGF-β % reduction of TGF-β stimulation_proline inc. (rat mesangial cell line [1]; @ 30 μM, 5 ng/mL TGF-β1, 44 h): 100% @ 30
8 | COc1cc(/C=C/C(=O)Nc2ccccc2C(=O)O)ccc1OCc1cn(CC(=O)Nc2ccccc2)nn1 [Analogue 20, (E)-2-[[3-(3-Methoxy-4-((1-(2-oxo-2-(phenylamino)ethyl)-1H-1,2,3-triazol-4-yl)methoxy)phenyl)-1-oxo-2-propenyl]amino]benzoic acid] | 50% | 90% | =FT11 | dead | 30% | –
9 | CC#CCOc1ccc(/C=C/C(=O)Nc2ccccc2C(=O)O)cc1OC [Analogue 22, (E)-2-[[3-(4-(But-2-ynyloxy)-3-methoxyphenyl)-1-oxo-2-propenyl]amino]benzoic acid] | ~70% | – | =FT11 | dead | 56% | inhibition at 3 µM (rat mesangial cell line [1]; Rattus norvegicus, Mesangial cell, @ 3 μM, 5 ng/mL TGF-β1, 44 h, read-out: Mesangial Cell Assay TGF-β % reduction of TGF-β stimulation_proline inc.): ~37%
10 | COc1ccc(/C=C/C(=O)Nc2ccccc2C(=O)NCc2cn(CC(=O)Nc3ccccc3)nn2)cc1OC [Analogue 32, (E)-2-(3-(3,4-Dimethoxyphenyl)acrylamido)-N-((1-(2-oxo-2-(phenylamino)ethyl)-1H-1,2,3-triazol-4-yl)methyl)benzamide] | 62% | – | Toxic | – | ~26% | Effect on mesangial cell appearance (rat mesangial cell line [2]; no concentration stated): Dead
11 | COc1cc(/C=C/C(=O)Nc2ccccc2C(=O)O)ccc1OCc1ccccc1 [Analogue 43, (E)-2-[[3-(4-Benzyloxy-3-methoxyphenyl)-1-oxo-2-propenyl]amino]benzoic acid] | 70% | – | – | Sick @ | 48% | Effect on mesangial cell appearance (rat mesangial cell line [2]; @ 30 μM): Sick @
12 | COc1cc(/C=C/C(=O)Nc2ccccc2C(=O)O)ccc1OCc1ccc2ccccc2c1 [Analogue 44, (E)-2-[[3-(3-Methoxy-4-(naphth-2-ylmethoxy)phenyl)-1-oxo-2-propenyl]amino]benzoic acid] | – | – | Toxic | – | – | Effect on mesangial cell appearance (rat mesangial cell line [2]; @ all concentrations): Cells damaged @
